Measured values reported in patent US8815909B2, “Diaminocyclohexane compounds and uses thereof” (Bristol-Myers Squibb Company, priority 2011, dated 2014).

molecular target: T1, human Y4 receptor (Homo sapiens, UniProt P50391); assay: NPY4 cAMP HTRF Agonist Assay (inhibitory cAMP assay, Gi activation by Y4 agonism); type: cell-based; conditions: human Y4 receptor, cAMP; read-out: hY4 CAMP EC50
T1 construct: expressed in transfected cells
Procedure, shortened: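 CHO cells stably expressing human Y4, 5000/well, exposed to compound with forskolin and IBMX in PBS for 30 min at room temperature. Gi-mediated inhibition of cAMP then measured by HTRF after 1 h with d2-conjugate and anti-cAMP cryptate.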

T1 sequence (P50391 whole entry): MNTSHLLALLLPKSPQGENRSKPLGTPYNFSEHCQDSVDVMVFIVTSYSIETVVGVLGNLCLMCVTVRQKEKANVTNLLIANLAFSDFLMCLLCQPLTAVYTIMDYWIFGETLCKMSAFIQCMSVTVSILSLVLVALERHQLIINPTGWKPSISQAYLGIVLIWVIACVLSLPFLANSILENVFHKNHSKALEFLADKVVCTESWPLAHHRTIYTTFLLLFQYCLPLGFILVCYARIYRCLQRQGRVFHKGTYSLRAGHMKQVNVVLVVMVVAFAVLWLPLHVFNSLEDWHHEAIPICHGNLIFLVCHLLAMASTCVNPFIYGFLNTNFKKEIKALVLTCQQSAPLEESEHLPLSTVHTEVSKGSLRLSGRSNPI

Structure (SMILES)	EC50
C[C@]1(N[C@@H]2CCCC[C@H]2Nc2ncc(-c3cccc(C(N)=O)c3)o2)CCCN(c2ncc(C#N)cn2)C1 [Example 432]	29 nM
N#Cc1cnc(N2C[C@@H]3C[C@H](N[C@@H]4CCCC[C@H]4Nc4ncc(-c5cccc(C(N)=O)c5)o4)[C@H]2C3)nc1 [Example 433]	144 nM
N#Cc1cc(N2C[C@@H]3C[C@H](N[C@@H]4CCCC[C@H]4Nc4ncc(-c5cccc(C(N)=O)c5)o4)[C@H]2C3)ncn1 [Example 439]	578 nM
N#Cc1cnc(N2C[C@@H]3C[C@H](N[C@@H]4CCCC[C@H]4Nc4ncc(-c5ccc(OC(F)(F)F)cc5)o4)[C@H]2C3)nc1 [Example 440]	15 nM
N#Cc1cnc(N2C[C@@H]3C[C@H](N[C@@H]4CCCC[C@H]4Nc4cc(Br)ccn4)[C@H]2C3)nc1 [Example 441]	803 nM
N#Cc1ccc(N2C[C@@H]3C[C@H](N[C@@H]4CCCC[C@H]4Nc4ncc(-c5ccc(OC(F)(F)F)cc5)o4)[C@H]2C3)nn1 [Example 443]	482 nM
N#Cc1cc(N2C[C@@H]3C[C@H](N[C@@H]4CCCC[C@H]4Nc4ncc(-c5ccc(OC(F)(F)F)cc5)o4)[C@H]2C3)ncn1 [Example 444]	378 nM
C[C@]1(N[C@@H]2CCCC[C@H]2Nc2ncc(-c3cccc(C(N)=O)c3)o2)CCCN(c2ccc(C(=N)NC(=O)C3CC3)nc2)C1 [Example 445]	4 nM
C[C@]1(N[C@@H]2CCCC[C@H]2Nc2ncc(-c3cccc(C(N)=O)c3)o2)CCCN(c2ccc(C(=O)NC(=O)C3CC3)nc2)C1 [Example 446]	6 nM
CCc1nc(-c2ccc(N3CCC[C@H](N[C@@H]4CCCC[C@H]4Nc4ncc(-c5cccc(C(N)=O)c5)o4)C3)nc2)no1 [Example 448]	2 nM
C[C@]1(N[C@@H]2CCCC[C@H]2Nc2ncc(-c3cccc(C(N)=O)c3)o2)CCCN(c2ccc(-c3noc(C4CC4)n3)nc2)C1 [Example 449]	5 nM
C[C@]1(N[C@@H]2CCCC[C@H]2Nc2cc(-c3cccc(C(N)=O)c3)ccn2)CCCN(c2ccc(-c3noc(C4CC4)n3)nc2)C1 [Example 450]	10 nM
NC(=O)c1cccc(-c2cnc(N[C@@H]3CCCC[C@H]3N[C@H]3CCCN(c4ccc(-c5noc(C6CC6)n5)cn4)C3)o2)c1 [Example 452]	3 nM
Cn1cnc(-c2ccc(N3CCC[C@H](N[C@@H]4CCCC[C@H]4Nc4cc(-c5ccc(F)c(F)c5)ccn4)C3)cc2)n1 [Example 457]	26 nM
COC(=O)Nc1cccc(-c2ccnc(N[C@@H]3CCCC[C@H]3N[C@H]3CCCN(c4ccc(-c5noc(C6CC6)n5)cc4)C3)c2)c1 [Example 458]	0.2 nM
NC(=O)c1cccc(-c2cnc(N[C@@H]3CCCC[C@H]3N[C@H]3CCCN(c4ccc(OC(F)(F)F)cc4)C3)o2)c1 [Example 459]	1 nM
Cn1nnc(-c2ccc(N3C[C@@H]4C[C@H](N[C@@H]5CCCC[C@H]5Nc5cc(-c6cccc(C(N)=O)c6)ccn5)[C@H]3C4)cc2)n1 [Example 460]	4 nM
COC(=O)Nc1cccc(-c2cnc(N[C@@H]3CCCC[C@H]3N[C@H]3CCCN(c4cnc(-c5noc(C)n5)nc4)C3)o2)c1 [Example 466]	1 nM
NC(=O)c1cccc(-c2cnc(N[C@@H]3CCCC[C@H]3N[C@H]3C[C@@H]4C[C@H]3N(c3cnc(C(F)(F)F)cn3)C4)o2)c1 [Example 470]	162 nM
C[C@]1(N[C@@H]2CCCC[C@H]2Nc2ncc(-c3cccc(C(N)=O)c3)o2)CCCN(c2cnc(C(F)(F)F)cn2)C1 [Example 472]	9 nM

Next, values leading:

EC50	Structure (SMILES)
142 nM	N#Cc1cnc(N2CCC[C@H](N[C@@H]3CCCC[C@H]3Nc3cc(-c4cccc(C(N)=O)c4)ccn3)C2)nc1 [Example 430]
171 nM	N#Cc1ncc(N2CCC[C@H](N[C@@H]3CCCC[C@H]3Nc3cc(-c4cccc(C(N)=O)c4)ccn3)C2)cn1 [Example 431]
129 nM	N#Cc1ncc(N2C[C@@H]3C[C@H](N[C@@H]4CCCC[C@H]4Nc4ncc(-c5cccc(C(N)=O)c5)o4)[C@H]2C3)cn1 [Example 434]
400 nM	C[C@]1(N[C@@H]2CCCC[C@H]2Nc2cc(-c3cccc(C(N)=O)c3)ccn2)CCCN(c2ncc(C#N)cn2)C1 [Example 435]
756 nM	N#Cc1ncc(N2CCC[C@H](N[C@@H]3CCCC[C@H]3Nc3cc(-c4cc(F)c(F)cc4F)ccn3)C2)cn1 [Example 436]
35 nM	N#Cc1cnc(N2CCCC(N[C@@H]3CCCC[C@H]3Nc3ncc(-c4cccc(C(N)=O)c4)o3)C2)nc1 (stereo partly shown) [Example 437]
5 nM	N#Cc1ncc(N2CCC[C@H](N[C@@H]3CCCC[C@H]3Nc3ncc(-c4cccc(C(N)=O)c4)o3)C2)cn1 [Example 438]
228 nM	N#Cc1cnc(N2C[C@@H]3C[C@H](N[C@@H]4CCCC[C@H]4Nc4cc(-c5cccc(C(N)=O)c5)ccn4)[C@H]2C3)nc1 [Example 442]
8 nM	CCc1nc(-c2ccc(N3CCC[C@H](N[C@@H]4CCCC[C@H]4Nc4cc(-c5cccc(C(N)=O)c5)ccn4)C3)nc2)no1 [Example 447]
4 nM	NC(=O)c1cccc(-c2ccnc(N[C@@H]3CCCC[C@H]3N[C@H]3CCCN(c4ccc(-c5noc(C6CC6)n5)cn4)C3)c2)c1 [Example 451]
41 nM	NC(=O)c1cccc(-c2ccnc(N[C@@H]3CCCC[C@H]3N[C@H]3CCCN(c4ccc(F)cc4)C3)c2)c1 [Example 453]
3 nM	NC(=O)c1cccc(-c2cnc(N[C@@H]3CCCC[C@H]3N[C@H]3CCCN(c4ccc(F)c(F)c4)C3)o2)c1 [Example 454]
2 nM	COC(=O)Nc1cccc(-c2ccnc(N[C@@H]3CCCC[C@H]3N[C@H]3CCCN(c4ccc(-c5ncn(C)n5)cc4)C3)c2)c1 [Example 455]
28 nM	Cn1cnc(-c2ccc(N3CCC[C@H](N[C@@H]4CCCC[C@H]4Nc4cc(-c5cccc(O)c5)ccn4)C3)cc2)n1 [Example 456]
55 nM	NC(=O)c1cccc(-c2cnc(N[C@@H]3CCCC[C@H]3N[C@H]3CCCN(c4ccc(F)cc4)C3)o2)c1 [Example 461]
8 nM	NC(=O)c1cccc(-c2ccnc(N[C@@H]3CCCC[C@H]3N[C@H]3CCCN(c4ccc(OC(F)(F)F)cc4)C3)c2)c1 [Example 462]
39 nM	Cc1nc(-c2ncc(N3CCC[C@H](N[C@@H]4CCCC[C@H]4Nc4cc(-c5cccc(C(N)=O)c5)ccn4)C3)cn2)no1 [Example 463]
42 nM	CNC(=O)c1cccc(-c2ccnc(N[C@@H]3CCCC[C@H]3N[C@H]3CCCN(c4cnc(-c5noc(C)n5)nc4)C3)c2)c1 [Example 464]
0.02 nM	COC(=O)Nc1cccc(-c2ccnc(N[C@@H]3CCCC[C@H]3N[C@H]3CCCN(c4cnc(-c5noc(C)n5)nc4)C3)c2)c1 [Example 465]
2 nM	Cc1nc(-c2ncc(N3CCC[C@H](N[C@@H]4CCCC[C@H]4Nc4cc(-c5ccc(F)c(F)c5)ccn4)C3)cn2)no1 [Example 467]
9 nM	Cc1nc(-c2ncc(N3CCC[C@H](N[C@@H]4CCCC[C@H]4Nc4cc(-c5ccc(F)cc5F)ccn4)C3)cn2)no1 [Example 468]
96 nM	Cc1nc(-c2ncc(N3CCC[C@H](N[C@@H]4CCCC[C@H]4Nc4cc(C#N)ccn4)C3)cn2)no1 [Example 469]
329 nM	NC(=O)c1cccc(-c2ccnc(N[C@@H]3CCCC[C@H]3N[C@H]3C[C@@H]4C[C@H]3N(c3cnc(C(F)(F)F)cn3)C4)c2)c1 [Example 471]
